# Assay results from patent publication US12068150B2, “Substrate cleaning solution, and using the same, method for manufacturing cleaned substrate and method for manufacturing device” (Merck Patent GmbH, priority 2018, dated 2024).
# Test: Evaluation of Solubility in 5.0 mass % ammonia water
# Type: physicochemical
# Settings: component (A), 100 ppm and 1,000 ppm, shaken 3 hours, checked visually
# Method: The solubility can be evaluated by known methods. For example, it can be determined under the condition of 20-35° C. (more preferably 25±2° C.) by providing a flask charged with 100 ppm of the above (A) or the below-mentioned (B) in 5.0 mass % ammonia water, covering the flask with a cap, shaking for 3 hours in a shaker, and confirming whether (A) or (B) is dissolved or not. The shaking may be stirring. Dissolution can be also judged visually. […] In the present specification, soluble includes slightly soluble in a broad sense. In the present specification, the solubility becomes low in the order of insoluble, hardly soluble and soluble. In the present specification, slightly soluble is less soluble than soluble and more soluble than hardly soluble in a narrow sense.
# 4 mg of each component (for example, 2,2-bis (4-hydroxyphenyl) propane) to be used thereafter is put in a 50 mL sample bottle, and 5.0 mass % ammonia water is added to make the total amount to 40 g. Covering this with a cap, it is shaken and stirred for 3 hours. This gives a liquid having a component concentration of 100 ppm.
# The same procedure as described above is carried out except that the amount of each component added is changed to 40 mg, and a liquid having a component concentration of 1,000 ppm is obtained. Their solubility is checked visually. Evaluation criteria are as shown below.
# X: When the dissolution residue is confirmed at 100 ppm and 1,000 ppm, it is judged to be insoluble or hardly soluble.
# Y: When the dissolution residue is not confirmed at 100 ppm but confirmed at 1,000 ppm, it is judged to be slightly soluble.
# Z: When the dissolution residue is confirmed at neither 100 ppm nor 1,000 ppm, it is judged to be soluble.
row,Compound,(A) Solubitity
1,"Oc1ccc(C(c2ccccc2)(c2ccccc2)c2ccc(O)cc2)cc1 [A11, 4,4′-dihydroxytetraphenylmethane]","X (When the dissolution residue is confirmed at 100 ppm and 1,000 ppm, it is judged to be insoluble or hardly soluble.)"

# Same assay, conditions: component (B), 100 ppm and 1,000 ppm, shaken 3 hours, checked visually
row,Compound,(B) Solubitity
1,"CC(C)(c1ccc(O)cc1)c1ccc(O)cc1 [B1, 2,2-bis(4-hydroxyphenyl)propane]","Y (When the dissolution residue is not confirmed at 100 ppm but confirmed at 1,000 ppm, it is judged to be slightly soluble.)"
2,"Oc1ccc(CC(c2ccc(O)cc2)(c2ccc(O)cc2)c2ccc(O)cc2)cc1 [B2, 1,2,2,2-tetrakis(4-hydroxyphenyl)ethane]","Z (When the dissolution residue is confirmed at neither 100 ppm nor 1,000 ppm, it is judged to be soluble.)"
3,"OC1CCCC(O)C1 (centres unmarked) [B3, 1,3-cyclohexanediol]","Z (When the dissolution residue is confirmed at neither 100 ppm nor 1,000 ppm, it is judged to be soluble.)"
4,"Cc1ccc(O)c(Cc2cc(C)cc(Cc3cc(C)ccc3O)c2O)c1 [B4, 2,6-bis[(2-hydroxy-5-methylphenyl)methyl]-4-methylphenol]","Y (When the dissolution residue is not confirmed at 100 ppm but confirmed at 1,000 ppm, it is judged to be slightly soluble.)"
5,"Cc1ccc(O)c(Cc2cc(C)ccc2O)c1 [B5, 2,2′-methylenebis(4-methylphenol)]","Z (When the dissolution residue is confirmed at neither 100 ppm nor 1,000 ppm, it is judged to be soluble.)"
6,"Oc1ccc(-c2ccc(O)cc2)cc1 [B6, 4,4′-dihydroxybiphenyl]","Y (When the dissolution residue is not confirmed at 100 ppm but confirmed at 1,000 ppm, it is judged to be slightly soluble.)"
7,"Oc1ccc2cc(O)ccc2c1 [B7, 2,6-naphthalenediol]","Y (When the dissolution residue is not confirmed at 100 ppm but confirmed at 1,000 ppm, it is judged to be slightly soluble.)"
8,"CC(C)(O)C#CC(C)(C)O [B8, 2,5-dimethyl-3-hexyne-2,5-diol]","Z (When the dissolution residue is confirmed at neither 100 ppm nor 1,000 ppm, it is judged to be soluble.)"
9,"CCC(C)(O)C#CC(C)(O)CC (centres unmarked) [B9, 3,6-dimethyl-4-octin-3,6-diol]","Z (When the dissolution residue is confirmed at neither 100 ppm nor 1,000 ppm, it is judged to be soluble.)"
10,"CC(C)(C)c1cc(O)c(C(C)(C)C)cc1O [B10, 2,5-di-tert-butylhydroquinone]","Z (When the dissolution residue is confirmed at neither 100 ppm nor 1,000 ppm, it is judged to be soluble.)"
